The values below come from patent publication US20220089575A1, “FARNESOID X RECEPTOR AGONISTS AND USES THEREOF” (Metacrine, Inc., priority 2017, published 2022).

This assay addresses T1, hFXR (Homo sapiens, UniProt Q96RI1).
T1 construct: expressed in transfected cells; host or cells: CV-1 cells
T1 sequence (Q96RI1 1-486): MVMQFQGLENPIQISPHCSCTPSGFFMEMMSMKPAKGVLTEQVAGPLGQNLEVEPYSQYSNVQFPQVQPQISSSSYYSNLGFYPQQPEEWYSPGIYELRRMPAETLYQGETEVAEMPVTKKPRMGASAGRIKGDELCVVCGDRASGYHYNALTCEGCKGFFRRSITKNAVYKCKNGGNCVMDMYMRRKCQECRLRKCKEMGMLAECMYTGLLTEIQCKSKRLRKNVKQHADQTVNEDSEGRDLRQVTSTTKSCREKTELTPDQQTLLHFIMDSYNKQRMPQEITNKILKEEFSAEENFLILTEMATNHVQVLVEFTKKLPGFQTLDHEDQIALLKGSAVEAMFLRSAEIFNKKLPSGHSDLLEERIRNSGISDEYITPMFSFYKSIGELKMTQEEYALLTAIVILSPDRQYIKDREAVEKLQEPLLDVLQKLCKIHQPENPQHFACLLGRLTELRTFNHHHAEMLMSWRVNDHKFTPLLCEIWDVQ
T1 sequence (P19793 1-462 partner): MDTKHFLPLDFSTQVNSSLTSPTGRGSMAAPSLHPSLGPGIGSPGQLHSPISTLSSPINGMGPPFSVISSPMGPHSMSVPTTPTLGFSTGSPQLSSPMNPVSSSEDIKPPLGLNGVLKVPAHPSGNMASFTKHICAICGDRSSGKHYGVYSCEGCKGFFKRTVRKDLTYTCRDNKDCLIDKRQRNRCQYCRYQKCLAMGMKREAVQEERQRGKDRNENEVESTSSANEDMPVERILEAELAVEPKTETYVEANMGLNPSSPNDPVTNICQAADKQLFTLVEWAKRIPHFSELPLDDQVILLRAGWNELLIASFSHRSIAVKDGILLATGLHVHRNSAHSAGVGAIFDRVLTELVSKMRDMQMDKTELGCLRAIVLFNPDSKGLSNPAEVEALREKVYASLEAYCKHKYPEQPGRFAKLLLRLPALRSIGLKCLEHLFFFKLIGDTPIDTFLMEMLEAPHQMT
In words: In Vitro FXR Assay (TK): TK-ECRE-luc reporter in transfected CV-1 cells. In kind it is cell-based. The following applies: 18 hrs, luminescence, maximum efficacy of <25% of the Fexarmine control classified as '+'. In short, it runs like this: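 Transiently transfected monkey CV-1 cells (hFXR, hRXR, TK-ECRE-luciferase, YFP control plasmid), held in stripped-serum DMEM, received compound dilutions from DMSO for 18 h at 37 °C. Activity was taken from luminescence of the cell lysates.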

Each structure is given as a SMILES string.

In general, EC50 refers to the concentration that produces a half-maximal response. The compound `CNC(=O)O[C@H]1CC[C@H](C(=O)N(C[C@H]2CC[C@H](c3ccc(OC)c(C)c3)CC2)c2cc(-c3coc(C4CC4)n3)ccn2)CC1` [Compound 5.33, trans-4-((4-(2-Cyclopropyloxazol-4-yl)pyridine-2-yl)((trans-4-(4-methoxy-3-methylphenyl)cyclohexyl)methyl)carbamoyl)cyclohexyl methylcarbamate] returned an EC50 of at most 250 nM.
`CNC(=O)O[C@H]1CC[C@H](C(=O)N(C[C@H]2CC[C@H](c3ccc4c(c3)c(F)nn4C)CC2)c2cccc(-c3cnc(C4CC4)s3)c2)CC1` [Compound 1.03, trans-4-((3-(2-Cyclopropylthiazol-5-yl)phenyl)((trans-4-(3-fluoro-1-methyl-1H-indazol-5-yl)cyclohexyl)methyl)carbamoyl)cyclohexyl methylcarbamate] yielded an EC50 of at most 250 nM.
As for `CCOC(=O)C[C@H]1CC[C@H](C(=O)N(C[C@H]2CC[C@H](c3ccc(OC)c(C)n3)CC2)c2cc(-c3cnn(C4CC4)c3)ccn2)CC1` [Compound 18.18, Ethyl 2-(trans-4-((4-(1-cyclopropyl-1H-pyrazol-4-yl)pyridin-2-yl)((trans-4-(5-methoxy-6-methylpyridin-2-yl)cyclohexyl)methyl)carbamoyl)cyclohexyl)acetate], the EC50 is at most 250 nM.
Consider `COc1ccc([C@H]2CC[C@H](CN(c3cc(-c4cnn(C(C)C)c4)ccn3)C(=O)[C@H]3CC[C@H](NC(=O)COC(C)=O)CC3)CC2)cc1C` [Compound 26.34, 2-((trans-4-((4-(1-Isopropyl-1H-pyrazol-4-yl)pyridin-2-yl)((trans-4-(4-methoxy-3-methylphenyl)cyclohexyl)methyl)carbamoyl)cyclohexyl)amino)-2-oxoethyl acetate], for which the EC50 was at most 250 nM.
For the compound `COc1ccc([C@H]2CC[C@H](CN(c3cc(-c4coc(C5CC5)n4)ccn3)C(=O)[C@H]3CC[C@H](OC(=O)NC(C)C(C)O)CC3)CC2)nc1C` (stereo partly drawn) [Compound 6.73, trans-4-((4-(2-Cyclopropyloxazol-4-yl)pyridin-2-yl)((trans-4-(5-methoxy-6-methylpyridin-2-yl)cyclohexyl)methyl)carbamoyl)cyclohexyl (3-hydroxybutan-2-yl)carbamate], the EC50 was at most 250 nM.
For the compound `COc1ccc([C@H]2CC[C@H](CN(c3cccc(-c4cnn(C(C)C)c4)c3)C(=O)[C@H]3CC[C@H](OC(=O)N4CC(O)C4)CC3)CC2)nc1C#N` [Compound 7.43, trans-4-(((trans-4-(6-Cyano-5-methoxypyridin-2-yl)cyclohexyl)methyl)(3-(1-isopropyl-1H-pyrazol-4-yl)phenyl)carbamoyl)cyclohexyl 3-hydroxyazetidine-1-carboxylate], the EC50 is at most 250 nM.
As for `COc1ccc([C@H]2CC[C@H](CN(c3cccc(-c4cnn(C5CC5)c4)c3)C(=O)[C@H]3CC[C@H](C(=O)OCCC(C)C)CC3)CC2)cc1C` [Compound 22.05, trans-Isopentyl 4-((3-(1-cyclopropyl-1H-pyrazol-4-yl)phenyl)((trans-4-(4-methoxy-3-methylphenyl)cyclohexyl)methyl)carbamoyl) cyclohexanecarboxylate], the EC50 fell in the range of 250 to 1000 nM.
For `COc1ccc([C@H]2CC[C@H](CN(c3cc(-c4coc(C5CC5)n4)ccn3)C(=O)[C@H]3CC[C@H](NC(=O)COC(C)=O)CC3)CC2)cc1C` [Compound 26.17, 2-((trans-4-((4-(2-cyclopropyloxazol-4-yl)pyridine-2-yl)((trans-4-(4-methoxy-3-methylphenyl)cyclohexyl)methyl)carbamoyl)cyclohexyl)amino)-2-oxoethyl acetate], the EC50 was at most 250 nM.
For `COc1ccc(C23CCC(CN(c4cc(-c5coc(C6CC6)n5)ccn4)C(=O)[C@H]4CC[C@H](C(=O)O)CC4)(CC2)CC3)cc1C` [Compound 18.03, trans-4-((4-(2-Cyclopropyloxazol-4-yl)pyridin-2-yl)((4-(4-methoxy-3-methylphenyl)bicyclo[2.2.2]octan-1-yl)methyl)carbamoyl) cyclohexanecarboxylic acid], the EC50 is at most 250 nM.
Compound `COc1ccc([C@H]2CC[C@H](CN(c3cccc(-c4coc(C(C)C)n4)c3)C(=O)[C@H]3CC[C@H](CC(=O)O)CC3)CC2)cc1C#N` [Compound 21.10, 2-(trans-4-(((trans-4-(3-Cyano-4-methoxyphenyl)cyclohexyl)methyl)(3-(2-isopropyloxazol-4-yl)phenyl)carbamoyl)cyclohexyl)acetic acid] yielded an EC50 of at most 250 nM.
As to `COc1ccc([C@H]2CC[C@H](CN(c3cc(-c4coc(C5CC5)n4)ccn3)C(=O)[C@H]3CC[C@H](OC(=O)NC[C@H](C)O)CC3)CC2)nc1C` [Compound 6.96, trans-4-((4-(2-Cyclopropyloxazol-4-yl)pyridin-2-yl)((trans-4-(5-methoxy-6-methylpyridin-2-yl)cyclohexyl)methyl)carbamoyl)cyclohexyl ((S)-2-hydroxypropyl)carbamate], the EC50 was at most 250 nM.
The figure for `COc1ccc([C@H]2CC[C@H](CN(c3cc(-c4cnn(C5CC5)c4)ccn3)C(=O)[C@H]3CC[C@H](NC(C)=O)CC3)CC2)cc1C` [Compound 26.30, trans-4-Acetamido-N-(4-(1-cyclopropyl-1H-pyrazol-4-yl)pyridin-2-yl)-N-((trans-4-(4-methoxy-3-methylphenyl)cyclohexyl)methyl) cyclohexanecarboxamide] is at most 250 nM; for `CNC(=O)O[C@H]1CC[C@H](C(=O)N(CC23CCC(c4ccc(N(C)C)nc4)(CC2)CC3)c2cccc(-c3coc(C4CC4)n3)c2)CC1` [Compound 3, 4-((3-(2-Cyclopropyloxazol-4-yl)phenyl)((4-(6-(dimethylamino)pyridin-3-yl)bicyclo[2.2.2]octan-1-yl)methyl)carbamoyl)cyclohexyl trans-methylcarbamate] it is at most 250 nM.
In turn, `COc1ccc([C@H]2CC[C@H](CN(c3cc(-c4coc(C5CC5)n4)ccn3)C(=O)[C@H]3CC[C@H](OC(N)=O)CC3)CC2)nc1C` [Compound 5.48, trans-4-((4-(2-Cyclopropyloxazol-4-yl)pyridine-2-yl)((trans-4-(5-methoxy-6-methylpyridin-2-yl)cyclohexyl)methyl)carbamoyl)cyclohexyl carbamate] gave an EC50 of at most 250 nM.
In turn, `COc1ccc([C@H]2CC[C@H](CN(c3cccc(-c4cnc(C5CC5)s4)c3)C(=O)[C@H]3CC[C@H](CO)CC3)CC2)cc1C` [Compound 15.02, trans-N-(3-(2-Cyclopropylthiazol-5-yl)phenyl)-4-(hydroxymethyl)-N-((trans-4-(4-methoxy-3-methylphenyl)cyclohexyl)methyl) cyclohexanecarboxamide] had an EC50 of at most 250 nM.
Compound `CNC(=O)O[C@H]1CC[C@H](C(=O)N(C[C@H]2CC[C@H](c3cnc(OC)c(C)c3)CC2)c2cc(-c3coc(C4CC4)n3)ccn2)CC1` [Compound 5.50, trans-4-((4-(2-Cyclopropyloxazol-4-yl)pyridine-2-yl)((trans-4-(6-methoxy-5-methylpyridin-3-yl)cyclohexyl)methyl)carbamoyl)cyclohexyl methylcarbamate] registered an EC50 of at most 250 nM.
`COc1ccc([C@H]2CC[C@H](CN(c3cccc(-c4cnn(C5CC5)c4)c3)C(=O)[C@H]3CC[C@H](C(=O)O)CC3)CC2)nc1C` [Compound 17.18, trans-4-((3-(1-Cyclopropyl-1H-pyrazol-4-yl)phenyl)((trans-4-(5-methoxy-6-methylpyridin-2-yl)cyclohexyl)methyl)carbamoyl) cyclohexanecarboxylic acid] came in with an EC50 of 250 to 1000 nM.
As for `COc1ccc([C@H]2CC[C@H](CN(c3cccc(-c4cnn(C5CC5)c4)c3)C(=O)[C@H]3CC[C@H](OC(=O)N4CC(CO)C4)CC3)CC2)cc1C` [Compound 7.28, trans-4-((3-(1-Cyclopropyl-1H-pyrazol-4-yl)phenyl)((trans-4-(4-methoxy-3-methylphenyl)cyclohexyl)methyl)carbamoyl)cyclohexyl 3-(hydroxymethyl)azetidine-1-carboxylate], the EC50 is at most 250 nM.
In the case of `COC(=O)NC[C@H]1CC[C@H](C(=O)N(C[C@H]2CC[C@H](c3ccc(OC)c(C)c3)CC2)c2cccc(-c3cnn(C4CC4)c3)c2)CC1` [Compound 26.14, Methyl ((trans-4-((3-(1-cyclopropyl-1H-pyrazol-4-yl)phenyl)((trans-4-(4-methoxy-3-methylphenyl)cyclohexyl)methyl)carbamoyl)cyclohexyl)methyl)carbamate], the EC50 is at most 250 nM.
